The results in this text go back to patent US10787416B1, “Crystals of intermediate for benzindene prostaglandins and methods for preparation thereof” (CHIROGATE INTERNATIONAL INC., priority 2020, dated 2020).

Data set [1] in a line: Storage stability of the crystalline forms at room temperature. In kind it is physicochemical. To be noted: room temperature for six months.
Data set [2] is described as follows: Crystalline form conversion by grinding. In kind it is physicochemical. To be noted: grinding at room temperature for about 10 minutes.

`CCCCC[C@H](O)CC[C@@H]1[C@H]2Cc3cccc(OCC#N)c3C[C@H]2C[C@H]1O` [Form I, 2-(((1R,2R,3aS,9aS)-2-hydroxy-1-((S)-3-hydroxyoctyl)-2,3,3a,4,9,9a-hexahydro-1H-cyclopenta[b]naphthalen-5-yl)oxy)acetonitrile]: the “stability (other crystalline forms or degraded products of impurities)” value in data set [1] is on record as “no other crystalline forms or degraded products of impurities”.
`CCCCC[C@H](O)CC[C@@H]1[C@H]2Cc3cccc(OCC#N)c3C[C@H]2C[C@H]1O` [Form II, 2-(((1R,2R,3aS,9aS)-2-hydroxy-1-((S)-3-hydroxyoctyl)-2,3,3a,4,9,9a-hexahydro-1H-cyclopenta[b]naphthalen-5-yl)oxy)acetonitrile]: the “crystalline form transformation on grinding” value in data set [2] is given as “convert to Form I crystal”.
